Experimental data reported in ChEMBL document CHEMBL3352242, “Structure-based design of substituted piperidines as a new class of highly efficacious oral direct Renin inhibitors” (ACS Med Chem Lett, 2014).
Active and inactive are the calls of the source. No cut-off for these calls is given here.

What was measured:
[1] = Clearance in rat liver microsomes; assay type: ADME; settings: read-out: CLH
[2] = Clearance in human liver microsomes; assay type: ADME; settings: read-out: CLH
Renin [3] = target: T1, Renin (Homo sapiens, UniProt P00797); assay: Inhibition of human recombinant renin in presence of human plasma using Ac- IHPFHL-VIHNK-(DY-505-X5)-COOH substrate by fluorimetric assay
T1 sequence (P00797 whole entry): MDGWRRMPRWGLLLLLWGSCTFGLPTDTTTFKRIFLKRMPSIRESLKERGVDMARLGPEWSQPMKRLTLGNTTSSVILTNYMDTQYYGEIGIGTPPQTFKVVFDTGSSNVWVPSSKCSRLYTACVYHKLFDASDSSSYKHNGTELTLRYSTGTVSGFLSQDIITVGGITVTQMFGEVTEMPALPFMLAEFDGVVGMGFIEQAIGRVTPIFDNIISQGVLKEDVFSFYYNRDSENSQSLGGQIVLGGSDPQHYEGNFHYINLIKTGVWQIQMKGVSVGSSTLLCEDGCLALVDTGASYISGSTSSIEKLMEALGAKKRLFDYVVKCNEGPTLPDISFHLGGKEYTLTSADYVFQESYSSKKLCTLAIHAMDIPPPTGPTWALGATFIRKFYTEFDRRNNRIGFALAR

Renin [4] = target: T1, Renin; assay: Inhibition of human recombinant renin using fluorescence-quenched RE(EDANS)IHPFHLVIHTK(Dabcyl)R substrate by fluorimetric assay
[5] = target: Voltage-gated inwardly rectifying potassium channel KCNH2 (Homo sapiens, UniProt Q12809); assay: Displacement of [3H]dofetilide from human ERG expressed in HEK293 cell membranes incubated for 90 mins by beta-counting method
[6] = Clearance in Sprague-Dawley rat at 2 mg/kg, iv; assay type: ADME, organism-based; design: dose 2 mg/kg, route intravenous; settings: in vivo
[7] = Half life in Sprague-Dawley rat at 2 mg/kg, iv; assay type: ADME, organism-based; design: dose 2 mg/kg, route intravenous; settings: in vivo
[8] = Oral bioavailability in Sprague-Dawley rat at 6 mg/kg; assay type: ADME, organism-based; settings: in vivo
Rattus norvegicus [9] = assay: Dose normalized AUC (infinity) in Sprague-Dawley rat at 6 mg/kg, po; assay type: ADME, organism-based; design: dose 6 mg/kg, route oral; settings: in vivo
[10] = Volume of distribution at steady state in Sprague-Dawley rat at 2 mg/kg, iv; assay type: ADME, organism-based; design: dose 2 mg/kg, route intravenous; settings: in vivo, read-out: Vdss
Rattus norvegicus [11] = assay: Dose normalized Cmax inSprague-Dawley rat at 6 mg/kg, po; assay type: ADME, organism-based, Sprague-Dawley; design: dose 6 mg/kg, route oral; settings: in vivo
Rattus norvegicus [12] = assay: Reduction in mean arterial pressure in human renin and human angiotensinogen double transgenic rat at 1 to 100 mg/kg, po; assay type: functional, organism-based; settings: Artery
Rattus norvegicus [13] = assay: Reduction in mean arterial pressure in human renin and human angiotensinogen double transgenic rat at 100 mg/kg, po after 42 hrs; assay type: functional, organism-based; design: dose 100 mg/kg; settings: Artery
[14] = Lipophilicity, logD of the compound at pH 6.8; assay type: physicochemical; settings: buffer

Sequence of Voltage-gated inwardly rectifying potassium channel KCNH2 (Q12809 whole entry): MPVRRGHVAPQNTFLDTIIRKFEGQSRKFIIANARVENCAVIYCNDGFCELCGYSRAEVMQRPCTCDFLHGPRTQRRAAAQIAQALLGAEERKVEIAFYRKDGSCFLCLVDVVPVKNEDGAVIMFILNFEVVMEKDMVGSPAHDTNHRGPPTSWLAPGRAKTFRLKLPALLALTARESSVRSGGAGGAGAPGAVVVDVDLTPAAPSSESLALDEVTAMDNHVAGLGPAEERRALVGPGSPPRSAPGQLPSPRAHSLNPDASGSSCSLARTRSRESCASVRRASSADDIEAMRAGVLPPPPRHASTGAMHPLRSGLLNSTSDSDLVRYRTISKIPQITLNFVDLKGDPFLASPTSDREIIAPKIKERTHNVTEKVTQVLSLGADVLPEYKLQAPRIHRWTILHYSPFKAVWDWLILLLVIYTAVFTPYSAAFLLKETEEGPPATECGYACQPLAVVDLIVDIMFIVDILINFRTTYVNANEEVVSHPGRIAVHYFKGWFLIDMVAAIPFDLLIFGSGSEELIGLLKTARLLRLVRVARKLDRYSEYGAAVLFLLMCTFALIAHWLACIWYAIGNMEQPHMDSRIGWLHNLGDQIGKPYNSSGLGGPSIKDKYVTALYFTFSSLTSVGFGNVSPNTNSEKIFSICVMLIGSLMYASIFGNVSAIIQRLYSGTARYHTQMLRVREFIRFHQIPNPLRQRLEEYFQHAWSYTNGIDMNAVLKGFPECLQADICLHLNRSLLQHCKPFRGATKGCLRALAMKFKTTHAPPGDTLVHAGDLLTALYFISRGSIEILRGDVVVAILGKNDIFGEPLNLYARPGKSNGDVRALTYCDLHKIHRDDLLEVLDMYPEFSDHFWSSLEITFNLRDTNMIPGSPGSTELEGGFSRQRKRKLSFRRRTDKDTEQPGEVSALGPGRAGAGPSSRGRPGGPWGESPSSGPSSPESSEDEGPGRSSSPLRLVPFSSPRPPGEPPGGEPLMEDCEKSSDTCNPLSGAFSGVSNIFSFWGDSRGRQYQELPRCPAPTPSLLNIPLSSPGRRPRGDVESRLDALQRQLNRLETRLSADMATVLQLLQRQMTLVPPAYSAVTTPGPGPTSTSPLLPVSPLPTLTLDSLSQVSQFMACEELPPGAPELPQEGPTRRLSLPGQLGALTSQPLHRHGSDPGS

SMILES | microsomal CLint [1] [µL/min/mg] | microsomal CLint [2] [µL/min/mg] | IC50 (Renin [3]) [nM] | IC50 (Renin [4]) [nM] | bioavailability [8] [%] | also measured
CCOC[C@@H](CC(C)C)NC(=O)[C@@H]1CNC[C@H](C(=O)N(c2cc(OCCCOC)c(C(C)C)cc2F)C2CC2)C1 | 214 | 115 | 2 | 0.3 | – | –
CC(C)(C)OC(=O)N[C@@H]1CNC[C@H](C(=O)N(Cc2cccc(Cl)c2Cl)C2CC2)C1 (racemic) | – | – | – | 200 | – | –
CCOC[C@@H](CC(C)C)NC(=O)[C@@H]1CNC[C@H](C(=O)N(c2cc(OCC)c(CC)cn2)C2CC2)C1 [listing 1 of 2 here] | 62 | 46 | – | 0.2 | – | IC50 [5]: > 30000 nM
CCOC[C@@H](CC(C)C)NC(=O)[C@@H]1CNC[C@H](C(=O)N(c2cc(OCCCOC)c(C(C)C)cn2)C2CC2)C1.Cl | 96 | 53 | 1 | 0.4 | 19 | clearance [6]: 80 mL/min/kg; half-life [7]: 4.3 h; AUC/dose (Rattus norvegicus [9]): 93 nM·h/mg/kg; Vd [10]: 11 L/kg; Cmax/dose (Rattus norvegicus [11]): 18 nM/mg/kg
CCOC[C@@H](CC(C)C)NC(=O)[C@@H]1CNC[C@H](C(=O)N(c2ccc(C(C)C)cn2)C2CC2)[C@@H]1O [listing 1 of 2 here] | – | – | – | – | – | Activity (Rattus norvegicus [12]): Dose-dependent effect; Activity (Rattus norvegicus [13]): Active
CCOC[C@@H](CC(C)C)NC(=O)[C@@H]1CNC[C@H](C(=O)N(c2ccc(C(C)C)cn2)C2CC2)[C@@H]1O [listing 2 of 2 here] | 52 | < 3.4 | 0.6 | 0.2 | – | IC50 [5]: > 30000 nM
CCOC[C@@H](CC(C)C)NC(=O)[C@@H]1CNC[C@H](C(=O)N(c2ccc(C(C)C)cc2)C2CC2)C1 | – | – | 5340 | 4 | – | –
CCOC[C@@H](CC(C)C)NC(=O)[C@@H]1CNC[C@H](C(=O)N(c2cc(OC)c(C(C)C)cn2)C2CC2)C1 [listing 1 of 2 here] | – | – | – | – | – | logD [14]: 2.2
CCOC[C@@H](CC(C)C)NC(=O)[C@@H]1CNC[C@H](C(=O)N(c2ccc(C(C)C)cn2)C2CC2)C1.O=C(O)/C=C/C(=O)O | – | – | – | – | 45 | clearance [6]: 60 mL/min/kg; half-life [7]: 6.5 h; AUC/dose (Rattus norvegicus [9]): 296 nM·h/mg/kg; Vd [10]: 7.2 L/kg; Cmax/dose (Rattus norvegicus [11]): 63 nM/mg/kg
COCCCn1cc(CN(C(=O)[C@H]2CNC[C@@H](NC(=O)CC(C)C)C2)C2CC2)c2ccccc21 (racemic) | – | – | – | 300 | – | –
CCOC[C@@H](CC(C)C)NC(=O)[C@@H]1CNC[C@H](C(=O)N(c2cc(OCC)c(CC)cn2)C2CC2)[C@@H]1O [listing 1 of 2 here] | 54 | 22 | 2.5 | 0.6 | – | –
CCOC[C@@H](CC(C)C)NC(=O)[C@@H]1CNC[C@H](C(=O)N(c2cc(OCC)c(CC)cn2)C2CC2)C1 [listing 2 of 2 here] | – | – | – | – | – | logD [14]: 2.1
CCOC[C@@H](CC(C)C)NC(=O)[C@@H]1CNC[C@H](C(=O)N(c2ccc(C(C)C)cn2)C2CC2)C1 [listing 1 of 2 here] | – | – | – | – | – | logD [14]: 4.9
COCCCn1cc(CN(C(=O)[C@H]2CNC[C@@H](C(=O)NCCC(C)C)C2)C2CC2)c2ccccc21 | 141 | 194 | 40 | 3 | 29 | –
CCOC[C@@H](CC(C)C)NC(=O)[C@@H]1CNC[C@H](C(=O)N(c2cc(OCC)c(CC)cn2)C2CC2)C1.O=C(O)C(O)C(O)C(=O)O | – | – | – | – | 44 | clearance [6]: 23.3 mL/min/kg; half-life [7]: 7.4 h; AUC/dose (Rattus norvegicus [9]): 690 nM·h/mg/kg; Vd [10]: 4.6 L/kg; Cmax/dose (Rattus norvegicus [11]): 155 nM/mg/kg
CCOC[C@@H](CC(C)C)NC(=O)[C@@H]1CNC[C@H](C(=O)N(c2cc(OCC)c(CC)cn2)C2CC2)[C@@H]1O.O=C(O)/C=C/C(=O)O | – | – | – | – | 60 | clearance [6]: 12.3 mL/min/kg; half-life [7]: 5.9 h; AUC/dose (Rattus norvegicus [9]): 1630 nM·h/mg/kg; Vd [10]: 2.6 L/kg; Cmax/dose (Rattus norvegicus [11]): 252 nM/mg/kg
CCOC[C@@H](CC(C)C)NC(=O)[C@@H]1CNC[C@H](C(=O)N(c2cc(OCC)c(CC)cn2)C2CC2)[C@@H]1O [listing 2 of 2 here] | – | – | – | – | – | logD [14]: 0.93
CCOC[C@@H](CC(C)C)NC(=O)[C@@H]1CNC[C@H](C(=O)N(c2cc(OC)c(C(C)C)cn2)C2CC2)C1 [listing 2 of 2 here] | 101 | 15 | 0.4 | 0.2 | – | IC50 [5]: > 30000 nM
CCOC[C@@H](CC(C)C)NC(=O)[C@@H]1CNC[C@H](C(=O)N(c2cc(OC)c(C(C)C)cn2)C2CC2)C1.O=C(O)C(O)C(O)C(=O)O | – | – | – | – | 39 | clearance [6]: 40 mL/min/kg; half-life [7]: 7 h; AUC/dose (Rattus norvegicus [9]): 324 nM·h/mg/kg; Vd [10]: 4.3 L/kg; Cmax/dose (Rattus norvegicus [11]): 68 nM/mg/kg
CCOC[C@@H](CC(C)C)NC(=O)[C@@H]1CNC[C@H](C(=O)N(c2cc(OC)c(C(C)C)cn2)C2CC2)[C@@H]1O [listing 1 of 2 here] | – | – | – | – | 61 | clearance [6]: 40 mL/min/kg; logD [14]: 0.93; half-life [7]: 7.7 h; AUC/dose (Rattus norvegicus [9]): 511 nM·h/mg/kg; Vd [10]: 6.1 L/kg; Cmax/dose (Rattus norvegicus [11]): 74 nM/mg/kg
Cc1ccc(S(=O)(=O)N[C@@H]2CNC[C@H](C(=O)N(Cc3cccc(Cl)c3Cl)C3CC3)C2)cc1 (racemic) | – | – | – | 2600 | – | –
COCCCn1cc(CN(C(=O)[C@H]2CNC[C@@H](C(=O)N[C@H](CCO)c3ccccc3)C2)C2CC2)c2ccccc21 | 109 | 173 | 1 | 0.4 | < 0.1 | –
CCOC[C@@H](CC(C)C)NC(=O)[C@@H]1CNC[C@H](C(=O)N(c2ccc(C(C)C)c(OCCCOC)n2)C2CC2)C1 | 252 | 289 | 6 | 0.8 | – | IC50 [5]: 3300 nM
CCOC[C@@H](CC(C)C)NC(=O)[C@@H]1CNC[C@H](C(=O)N(c2cc(OC)c(C(C)C)cn2)C2CC2)[C@@H]1O [listing 2 of 2 here] | 142 | 22 | 2 | – | – | –
COCCCn1cc(CN(C(=O)[C@H]2CNC[C@@H](C(=O)NCC(C)C)C2)C2CC2)c2ccccc21 (racemic) | – | – | 115 | 15 | – | –
COCCCn1cc(CN(C(=O)[C@H]2CNC[C@@H](C(=O)Nc3c(C)cccc3OC)C2)C2CC2)c2ccccc21 | 533 | 679 | 2 | 0.4 | – | –
CCOC[C@@H](CC(C)C)NC(=O)[C@@H]1CNC[C@H](C(=O)N(c2cc3c(cc2F)OC(C)(C)C(=O)N3CCCOC)C2CC2)C1.Cl | 198 | 61 | – | – | 20 | clearance [6]: 122 mL/min/kg; half-life [7]: 1.9 h; AUC/dose (Rattus norvegicus [9]): 49 nM·h/mg/kg; Vd [10]: 12 L/kg; Cmax/dose (Rattus norvegicus [11]): 12 nM/mg/kg
Cc1ccc(S(=O)(=O)N[C@@H]2CNC[C@H](C(=O)NC(c3ccccc3)c3ccccc3)C2)cc1 (racemic) | – | – | 15200 | 1200 | – | –
CCOC[C@@H](CC(C)C)NC(=O)[C@@H]1CNC[C@H](C(=O)N(c2ccc(C(C)C)cn2)C2CC2)C1 [listing 2 of 2 here] | 13 | < 3.4 | 1.1 | – | – | IC50 [5]: 7000 nM
COCCCn1cc(CN(C(=O)[C@H]2CNC[C@@H](C(=O)N[C@@H](CO)CC(C)C)C2)C2CC2)c2ccccc21 | 111 | 157 | 8 | 3 | 0.4 | –
